Columns and labels:
SW1463 = assay: Cell proliferation assay, SW1463; type: cell-based; settings: Homo sapiens; SW1463, PF-309 alone, 72 h; 1 uM was the maximum concentration used
Method: (§1) Cytotoxic/proliferation effects were determined using the sulforhodamine B (SRB) assay (Skehan et al., [1990]) or by resazurin. Briefly, cells in logarithmic growth phase were transferred to 96 well flat bottom plates with lids. One-hundred microliter cell suspensions containing 1500–5000 viable cells were plated into each well and incubated overnight prior to exposure with increasing concentrations of PF-309 for 3–5 days, dependent upon cell type. Media was removed and cells were fixed with cold 10% trichloroacetic acid for 30 min at 4°C. Cells were then washed with water and stained with 0.4% SRB (Fisher Sci., Pittsburgh, PA, USA) for 30 min at room temperature, washed again with 1% acetic acid, followed by stain solubilization with 10 mM tris at room temperature. The plate was then read on a plate reader (Biotek Synergy 2, Winooski, VT, USA) set at an absorbance wavelength of 565 nm. Cell proliferation curves were derived from the raw absorbance (OD) data.
(§2) Since PF-309 appeared to be a strong P-gp and BCRP substrates, we sought to evaluate if the transporters influenced sensitivity in vitro. We evaluated the sensitivity of CRC cell lines to PF-309 treatment in a panel of 27 lines. Cells were exposed to PF-309 at a range of concentrations for 72 h and cell content measured by SRB assay (see Pitts et al., [2013]). […]

LS1034 = assay: Cell proliferation assay, LS1034; type: cell-based; settings: Homo sapiens, LS-1034; LS1034, PF-309 alone, 72 h; 1 uM was the maximum concentration used
Method: as §1, §2

GEO = assay: Cell proliferation assay, GEO; type: cell-based; settings: Homo sapiens, 72 h, SRB assay
Method: as §1, §2

SW48 = assay: Cell proliferation assay, SW48; type: cell-based; settings: Homo sapiens; SW48, 72 h, SRB assay
Method: as §1, §2

SW480 = assay: Cell proliferation assay, SW480; type: cell-based; settings: Homo sapiens; SW480, 72 h, SRB assay
Method: as §1, §2

COLO205 = assay: Cell proliferation assay, COLO205; type: cell-based; settings: Homo sapiens, COLO 205; COLO205, 72 h, SRB assay
Method: as §1, §2

DLD1 PgP_KD2 = assay: Proliferation after shRNA knockdown of P-gp, DLD1 PgP_KD2; type: cell-based; settings: Homo sapiens, DLD-1; DLD1 PgP_KD2 :50, P-gp shRNA knockdown
Method: as §1
(§3) The pGIPZ Pgp-specific shRNA expression cassettes, along with control shRNA plasmids including the original pGIPZ vector were purchased from Open Biosystems (Birmingham, AL, USA). […] Successful knockdown of specific genes and gene products was confirmed by semi-quantitative RT-PCR and immunoblotting with specific antibodies. […]

DLD1 Scr = assay: Proliferation, control shRNA, DLD1 Scr; type: cell-based; settings: Homo sapiens, DLD-1; DLD1 Scr:50, control shRNA
Method: as §1, §3

CRC cell lines = assay: Proliferation assays with and without P-gp inhibitor CP-100356, subset of CRC cell lines; type: cell-based, human; settings: 0.625 μM CP-100356; five out of the six CRC cell lines
Method: Cytotoxic/proliferation effects were determined using the sulforhodamine B (SRB) assay (Skehan et al., [1990]) or by resazurin. Briefly, cells in logarithmic growth phase were transferred to 96 well flat bottom plates with lids. […] Media was removed and cells were fixed with cold 10% trichloroacetic acid for 30 min at 4°C. Cells were then washed with water and stained with 0.4% SRB (Fisher Sci., Pittsburgh, PA, USA) for 30 min at room temperature, washed again with 1% acetic acid, followed by stain solubilization with 10 mM tris at room temperature. The plate was then read on a plate reader (Biotek Synergy 2, Winooski, VT, USA) set at an absorbance wavelength of 565 nm. Cell proliferation curves were derived from the raw absorbance (OD) data.

GEO cell line xenograft = assay: CRC cell line xenograft efficacy, GEO; type: in vivo, mice; settings: 25 mg/kg orally twice daily, 14–28 days, end of study tumor volumes
Method: For cell line xenografts, CRC cells were harvested in exponential phase growth and resuspended in a 1:1 mixture of serum-free RPMI 1640 and Matrigel (BD Biosciences). Five to ten million cells per mouse were injected subcutaneously into the flank using a 23-gauge needle. Mice were monitored daily for signs of toxicity and were weighed twice weekly. Tumor size was evaluated twice per week by caliper measurements using the following formula: tumor volume = length × width^2 × 0.52. When tumors reached 200–300 mm^3 mice were randomized into two groups with at least 10 tumors per group. Mice were then treated for 14–28 days (until control tumor volume reach ∼1500 mm^3) with either vehicle control (0.5% methylcellulose), or PF-3758309 (25 mg/kg) twice daily by oral gavage.
Human tumor xenograft models were used to evaluate the efficacy of PF-309 in vivo. Eleven different CRC cell line tumor xenografts were treated with 25 mg/kg PF-309 twice daily by oral gavage for 14–28 days (until control tumor volumes reached ∼1500 mm^3). Tumor volumes were measured throughout the study and the % growth inhibition was calculated from the average end of study tumor volumes by:
% Growth Inhibition= (average control volume−average treated volume)/average control volume×100%

IC50 (SW1463): > 1 µM
IC50 (SW48): 0.0119 ± 0.0044 µM
IC50 (SW480): 0.0101 ± 0.0025 µM
IC50 (COLO205): 0.0042 ± 0.0014 µM
IC50 (DLD1 PgP_KD2): 0.018 µM
IC50 (DLD1 Scr): 0.103 µM
Compound: Cc1nc(Nc2n[nH]c3c2CN(C(=O)N[C@H](CN(C)C)c2ccccc2)C3(C)C)c2sccc2n1 [PF-309]
IC50 (LS1034): > 1 µM
IC50 (GEO): > 1 µM
fold change in the IC50 of PF-309 caused by CP-100356 (CRC cell lines): 4–100 fold
% Growth inhibition (GEO cell line xenograft): 42%
